Measurements: US4511724A, “5-(Pyrrol-2-oyl)-1,2-dihydro-3H-pyrrolo [1,2-a]pyrrole derivatives as anti-inflammatory and analgesic agents” (Merck & Co., Inc., priority 1982, dated 1985)

Tests used:
in vivo = assay: in vivo; set-up: species or system Rats (Sprague-Dawley); conditions: rat, po
Method: The GHLF test is conducted according to the following procedure:
Rats (Sprague-Dawley, Males, 120-180 gm) were fasted overnight and dosed orally with drug suspended in 0.5% methylcellulose. The drug concentration was adjusted so that each animal received 1.0 ml/100 gm body weight. Four hours later the animals were killed by asphixiation in carbon dioxide, the stomachs removed, cut open and everted. The mucosal lining was washed and examined under 3X magnification. The lesions are indentified as perforations of the gastric mucosa many of which perforate right through the wall of the stomach.
The results are expressed in two ways, the average number of lesions per stomach, and the number of animals in the group showing at least one lesion.

[1] = test system: phenylbenzquinone (PBQ) writhing; assay: Inhibition of phenylbenzquinone (PBQ) writhing in mice; format: in vivo, mice (C.B.L., CD1); conditions: Mus musculus, oral, PBQ 2.0 mg/kg i.p.
Method: b. Inhibition of phenylbenzquinone (PBQ) writhing in mice:
Groups of 10 male mice (C.B.L., CD1, 18-22 grams) were food deprived overnight prior to the experiments. Test substances, suspended or dissolved in 1% methylcellulose, were administered orally (0.1 ml/10 grams body weight) at various times prior to administration of PBQ (2.0 mg/kg i.p.). The mice were placed in individual boxes and observed for 10 minutes (5 to 15 minutes after PBQ). The number of "writhes" (abdominal contraction, lordosis and hindlimb extension) for each animal was recorded and the group means and standard errors were calculated. The means obtained from drug treated groups were compared with the vehicle control mean values and percent inhibition of writhing was calculated as follows: [formula]

adjuvant arthritis = assay: Rat adjuvant arthritis test (adjuvant); format: in vivo; conditions: for ED50: rat adjuvant arthritis
Description: c. Rat adjuvant arthritis test (adjuvant)
The test was done in accordance with procedures well-known in the art (see: C. A. Winter, Arthr. Rheum 9, 394-404 (1966).

Row | SMILES | TD50 at 4 h (in vivo) [mg/kg] | ED50 [1] [mg/kg] | protection from bone and cartilage destruction (adjuvant arthritis; at 30 mg/kg) | ED50 (adjuvant arthritis) [mg/kg] | protection from bone and cartilage destruction (adjuvant arthritis; at 10 mg/kg)
1 | CCOC(=O)C1CCn2c1cc(C)c2C(=O)c1cccn1C (centres unmarked) [Prior Art Compound, reference compound] | 10 | 1 | No protection | 30 | –
2 | CCOC(=O)C1CCn2c1cc(C)c2C(=O)c1ccc(SC)n1C (centres unmarked) [RZ = CH3 S, R^4 = C2 H5, ethyl 5-(1-methyl-5-methylthio-2-pyrroyl)-1,2-dihydro-6-methyl-3H-pyrrolo-[1,2-a]pyrrole-1-carboxylate] | 90 | 0.17 | – | 7.5 | Protection
3 | CSc1ccc(C(=O)c2c(C)cc3n2CCC3C(=O)O)n1C (centres unmarked) [RZ = CH3 S, R^4 = H, 5-(1-methyl-5-methylthio-2-pyrroyl)-1,2-dihydro-6-methyl-3H-pyrrolo-[1,2-a]pyrrole-1-carboxylic acid] | 15 | – | – | – | –
4 | Cc1cc2n(c1C(=O)c1ccc(Cl)n1C)CCC2C(=O)O (centres unmarked) [RZ = Cl, R^4 = H, 5-(1-methyl-5-chloro-2-pyrroyl)-1,2-dihydro-6-methyl-3H-pyrrolo[1,2-a]pyrrole-1-carboxylic acid] | 15 | 2.1 | – | – | –
